# Measured values reported in PMC4490784, “Compensatory induction of MYC expression by sustained CDK9 inhibition via a BRD4-dependent mechanism” (eLife, 2015).
# Legend:
# Experiment in all cases: KINOMEscan binding assay
# PRKD1 = target: T1, PRKD1 (Homo sapiens, UniProt Q15139); conditions: read-out: % Retention on Solid Support
# T1 construct: purchased DiscoveRx KINOMEscan
# Method: (§1) As there are no commercial or in-house kinase assays available for CDK3, CDK5, CDK11 and CDK13, the inhibitory abilities of i-CDK9 toward these CDKs were thus evaluated in the DiscoveRx KINOMEscan assay, which is based on a proprietary active site-directed competition-binding platform ([Fabian et al., 2005]).
# (§2) The inhibitory activity of i-CDK9 for CDK1-CycB (Upstate/Millipore), CDK2-CycA (Invitrogen), CDK4-CycD1 (Novartis), CDK7-CycH-MAT1 (Invitrogen), and CDK9-CycT1 (Invitrogen) was assessed in the AlphaScreen (PerkinElmer, Inc)-based kinase assay developed at Novartis. Briefly, each CDK–cyclin pair was pre-incubated with i-CDK9 for 15 min, followed by addition of kinase substrates (ELK for CDK1 and CDK2, RB for CDK4, and CDK7tide for CDK7 and CDK9). The mixture was incubated at room temperature for additional 4–5 hr. The reaction was stopped and read on Envision (PerkinElmer, Inc). Selectivity against a large panel of over 400 kinases was evaluated using the KINOMEscan platform (DiscoveRx, CA) employing a proprietary active site-directed competition binding assay ([Fabian et al., 2005]). The assay was conducted at two different concentrations of i-CDK9 (1 and 10 µM) by DiscoveRx.
# IRAK3 = target: T2, IRAK3 (Homo sapiens, UniProt Q9Y616); conditions: read-out: % Retention on Solid Support
# T2 construct: purchased DiscoveRx KINOMEscan
# Method: as §1, §2
# MTOR = target: T3, MTOR (Homo sapiens, UniProt P42345); conditions: 1 µM i-CDK9; read-out: % Retention on Solid Support
# T3 construct: purchased DiscoveRx KINOMEscan
# Method: as §1, §2
# EPHB4 = target: T4, EPHB4 (Homo sapiens, UniProt P54760); conditions: read-out: % Retention on Solid Support
# T4 construct: purchased DiscoveRx KINOMEscan
# T4 sequence (P54760 16-987): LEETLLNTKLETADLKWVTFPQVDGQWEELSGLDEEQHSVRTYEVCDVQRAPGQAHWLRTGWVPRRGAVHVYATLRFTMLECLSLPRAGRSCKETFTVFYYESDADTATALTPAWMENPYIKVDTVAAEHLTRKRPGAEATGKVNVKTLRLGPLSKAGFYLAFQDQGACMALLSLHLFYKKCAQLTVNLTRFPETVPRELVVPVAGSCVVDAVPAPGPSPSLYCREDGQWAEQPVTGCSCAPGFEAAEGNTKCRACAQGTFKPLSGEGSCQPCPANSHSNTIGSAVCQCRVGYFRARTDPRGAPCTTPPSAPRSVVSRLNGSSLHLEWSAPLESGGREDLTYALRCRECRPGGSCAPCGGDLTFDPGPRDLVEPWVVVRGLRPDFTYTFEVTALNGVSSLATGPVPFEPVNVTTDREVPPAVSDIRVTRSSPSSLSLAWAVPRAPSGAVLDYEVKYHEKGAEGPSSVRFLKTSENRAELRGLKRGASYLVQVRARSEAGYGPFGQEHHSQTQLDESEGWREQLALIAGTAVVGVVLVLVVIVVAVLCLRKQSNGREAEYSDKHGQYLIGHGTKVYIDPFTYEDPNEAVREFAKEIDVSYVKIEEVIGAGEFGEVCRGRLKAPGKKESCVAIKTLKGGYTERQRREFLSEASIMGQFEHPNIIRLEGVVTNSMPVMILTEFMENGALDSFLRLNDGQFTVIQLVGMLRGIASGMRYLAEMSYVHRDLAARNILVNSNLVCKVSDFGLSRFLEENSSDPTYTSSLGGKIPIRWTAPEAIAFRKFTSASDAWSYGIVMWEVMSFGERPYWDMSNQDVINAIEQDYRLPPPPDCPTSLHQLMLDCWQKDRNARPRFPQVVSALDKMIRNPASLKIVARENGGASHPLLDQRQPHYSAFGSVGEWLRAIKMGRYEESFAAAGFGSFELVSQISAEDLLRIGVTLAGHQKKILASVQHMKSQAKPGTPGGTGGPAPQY
# Method: as §1, §2
# STK33 = target: T5, STK33 (Homo sapiens, UniProt Q9BYT3); conditions: read-out: % Retention on Solid Support
# T5 construct: purchased DiscoveRx KINOMEscan
# Method: as §1, §2
# LCK = target: T6, LCK (Homo sapiens, UniProt P06239); conditions: read-out: % Retention on Solid Support
# T6 construct: purchased DiscoveRx KINOMEscan
# Method: as §1, §2
# p38-beta = target: T7, p38-beta (Homo sapiens, UniProt Q15759); conditions: read-out: % Retention on Solid Support
# T7 construct: purchased DiscoveRx KINOMEscan
# Method: as §1, §2
# [1] = target: T8, ABL1(F317I)-phosphorylated (Homo sapiens, UniProt P00519, F317I); conditions: 1 µM i-CDK9; read-out: % Retention on Solid Support
# T8 construct: purchased DiscoveRx KINOMEscan
# Method: as §1, §2
# CDK5 = target: T9, CDK5 (Homo sapiens, UniProt Q00535); conditions: read-out: % Retention on Solid Support
# T9 construct: purchased DiscoveRx KINOMEscan
# Method: as §1, §2
# [2] = target: T10, ABL1(M351T)-nonphosphorylated (Homo sapiens, UniProt P00519, M351T); conditions: 10 µM i-CDK9; read-out: % Retention on Solid Support
# T10 construct: purchased DiscoveRx KINOMEscan
# Method: as §1, §2
# TRKC = target: T11, TRKC (Homo sapiens, UniProt Q16288); conditions: read-out: % Retention on Solid Support
# T11 construct: purchased DiscoveRx KINOMEscan
# Method: as §1, §2
# FGFR3(G697C) = target: T12, FGFR3(G697C) (Homo sapiens, UniProt P22607, G697C); conditions: read-out: % Retention on Solid Support
# T12 construct: purchased DiscoveRx KINOMEscan
# Method: as §1, §2
# PCTK2 = target: T13, PCTK2 (Homo sapiens, UniProt Q00537); conditions: read-out: % Retention on Solid Support
# T13 construct: purchased DiscoveRx KINOMEscan
# Method: as §1, §2
# CIT = target: T14, CIT (Homo sapiens, UniProt O14578)
# T14 construct: purchased DiscoveRx KINOMEscan
# Method: as §1, §2
# MET = target: T15, MET (Homo sapiens, UniProt P08581)
# T15 construct: purchased DiscoveRx KINOMEscan
# Method: as §1, §2
# GSK3B = target: T16, GSK3B (Homo sapiens, UniProt P49841); conditions: read-out: % Retention on Solid Support
# T16 construct: purchased DiscoveRx KINOMEscan
# Method: as §1, §2
# MARK4 = target: T17, MARK4 (Homo sapiens, UniProt Q96L34)
# T17 construct: purchased DiscoveRx KINOMEscan
# Method: as §1, §2
# FLT4 = target: T18, FLT4 (Homo sapiens, UniProt P35916); conditions: read-out: % Retention on Solid Support
# T18 construct: purchased DiscoveRx KINOMEscan
# Method: as §1, §2
# HUNK = target: T19, HUNK (Homo sapiens, UniProt P57058); conditions: read-out: % Retention on Solid Support
# T19 construct: purchased DiscoveRx KINOMEscan
# Method: as §1, §2
# T13 sequence (Q00537 whole entry): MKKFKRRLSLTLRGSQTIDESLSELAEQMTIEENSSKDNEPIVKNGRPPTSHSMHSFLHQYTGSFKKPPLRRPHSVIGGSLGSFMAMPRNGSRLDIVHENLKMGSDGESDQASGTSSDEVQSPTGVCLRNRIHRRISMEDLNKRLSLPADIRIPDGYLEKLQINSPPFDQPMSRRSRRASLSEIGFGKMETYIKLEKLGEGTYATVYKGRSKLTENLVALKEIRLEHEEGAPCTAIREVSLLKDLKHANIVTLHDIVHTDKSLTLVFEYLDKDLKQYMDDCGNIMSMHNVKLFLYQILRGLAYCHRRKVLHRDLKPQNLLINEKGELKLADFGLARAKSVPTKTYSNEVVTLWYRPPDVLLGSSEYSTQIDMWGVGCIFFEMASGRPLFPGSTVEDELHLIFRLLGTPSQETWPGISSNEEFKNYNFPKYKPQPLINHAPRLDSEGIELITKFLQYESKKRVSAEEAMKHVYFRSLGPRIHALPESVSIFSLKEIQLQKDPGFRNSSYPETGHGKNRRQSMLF
# T6 sequence (P06239 whole entry): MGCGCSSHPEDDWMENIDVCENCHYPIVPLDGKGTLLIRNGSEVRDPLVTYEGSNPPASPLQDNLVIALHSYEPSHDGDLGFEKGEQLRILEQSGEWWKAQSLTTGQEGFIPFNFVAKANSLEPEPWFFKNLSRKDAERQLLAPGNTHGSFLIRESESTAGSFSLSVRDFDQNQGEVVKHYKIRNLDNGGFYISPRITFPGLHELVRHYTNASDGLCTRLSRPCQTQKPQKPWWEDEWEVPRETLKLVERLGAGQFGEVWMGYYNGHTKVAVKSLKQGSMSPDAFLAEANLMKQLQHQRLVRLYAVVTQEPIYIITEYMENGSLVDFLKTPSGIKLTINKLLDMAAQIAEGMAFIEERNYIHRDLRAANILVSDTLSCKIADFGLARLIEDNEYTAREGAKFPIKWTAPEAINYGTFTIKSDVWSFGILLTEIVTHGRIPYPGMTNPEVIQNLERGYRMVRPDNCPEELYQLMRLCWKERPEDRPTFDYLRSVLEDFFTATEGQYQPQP
# T7 sequence (Q15759 whole entry): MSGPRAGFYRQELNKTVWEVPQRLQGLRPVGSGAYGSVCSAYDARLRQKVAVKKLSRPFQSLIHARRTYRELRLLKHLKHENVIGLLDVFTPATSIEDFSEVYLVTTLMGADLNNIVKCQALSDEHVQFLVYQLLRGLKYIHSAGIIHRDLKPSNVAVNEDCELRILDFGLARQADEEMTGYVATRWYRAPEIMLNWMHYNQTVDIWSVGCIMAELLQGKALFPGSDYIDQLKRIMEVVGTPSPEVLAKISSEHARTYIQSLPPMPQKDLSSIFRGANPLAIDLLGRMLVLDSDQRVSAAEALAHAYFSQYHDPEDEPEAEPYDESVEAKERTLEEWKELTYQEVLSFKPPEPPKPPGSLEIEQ
# T16 sequence (P49841 whole entry): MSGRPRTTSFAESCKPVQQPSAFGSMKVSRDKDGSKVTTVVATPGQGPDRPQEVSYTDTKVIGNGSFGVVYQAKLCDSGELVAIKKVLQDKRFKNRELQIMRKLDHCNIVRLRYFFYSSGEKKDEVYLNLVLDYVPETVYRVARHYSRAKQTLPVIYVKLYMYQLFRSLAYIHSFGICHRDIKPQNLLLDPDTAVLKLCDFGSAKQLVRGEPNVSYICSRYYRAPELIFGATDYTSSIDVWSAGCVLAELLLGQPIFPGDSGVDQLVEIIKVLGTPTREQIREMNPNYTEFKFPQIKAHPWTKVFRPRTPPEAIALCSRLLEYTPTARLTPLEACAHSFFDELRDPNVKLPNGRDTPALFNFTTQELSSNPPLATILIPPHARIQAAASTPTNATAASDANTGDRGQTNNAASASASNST
# T19 sequence (P57058 whole entry): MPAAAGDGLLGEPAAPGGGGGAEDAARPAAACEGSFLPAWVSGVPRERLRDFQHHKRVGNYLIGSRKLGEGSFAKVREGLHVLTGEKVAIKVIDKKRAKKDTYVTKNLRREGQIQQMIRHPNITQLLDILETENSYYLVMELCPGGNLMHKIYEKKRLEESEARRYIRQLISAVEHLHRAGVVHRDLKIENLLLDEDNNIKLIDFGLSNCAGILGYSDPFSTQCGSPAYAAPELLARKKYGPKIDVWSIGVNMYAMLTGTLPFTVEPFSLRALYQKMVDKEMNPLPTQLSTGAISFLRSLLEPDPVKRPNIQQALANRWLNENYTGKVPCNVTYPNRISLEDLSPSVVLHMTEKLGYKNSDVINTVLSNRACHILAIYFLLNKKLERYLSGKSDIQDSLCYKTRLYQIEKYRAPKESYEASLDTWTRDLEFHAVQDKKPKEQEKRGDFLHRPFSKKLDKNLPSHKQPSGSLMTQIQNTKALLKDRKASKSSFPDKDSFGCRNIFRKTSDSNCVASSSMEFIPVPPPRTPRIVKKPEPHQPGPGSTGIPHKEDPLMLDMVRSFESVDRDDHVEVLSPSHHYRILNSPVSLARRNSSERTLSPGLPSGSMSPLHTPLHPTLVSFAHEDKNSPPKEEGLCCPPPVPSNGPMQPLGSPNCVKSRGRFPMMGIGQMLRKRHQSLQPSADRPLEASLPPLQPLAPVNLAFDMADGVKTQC
# T11 sequence (Q16288 32-839): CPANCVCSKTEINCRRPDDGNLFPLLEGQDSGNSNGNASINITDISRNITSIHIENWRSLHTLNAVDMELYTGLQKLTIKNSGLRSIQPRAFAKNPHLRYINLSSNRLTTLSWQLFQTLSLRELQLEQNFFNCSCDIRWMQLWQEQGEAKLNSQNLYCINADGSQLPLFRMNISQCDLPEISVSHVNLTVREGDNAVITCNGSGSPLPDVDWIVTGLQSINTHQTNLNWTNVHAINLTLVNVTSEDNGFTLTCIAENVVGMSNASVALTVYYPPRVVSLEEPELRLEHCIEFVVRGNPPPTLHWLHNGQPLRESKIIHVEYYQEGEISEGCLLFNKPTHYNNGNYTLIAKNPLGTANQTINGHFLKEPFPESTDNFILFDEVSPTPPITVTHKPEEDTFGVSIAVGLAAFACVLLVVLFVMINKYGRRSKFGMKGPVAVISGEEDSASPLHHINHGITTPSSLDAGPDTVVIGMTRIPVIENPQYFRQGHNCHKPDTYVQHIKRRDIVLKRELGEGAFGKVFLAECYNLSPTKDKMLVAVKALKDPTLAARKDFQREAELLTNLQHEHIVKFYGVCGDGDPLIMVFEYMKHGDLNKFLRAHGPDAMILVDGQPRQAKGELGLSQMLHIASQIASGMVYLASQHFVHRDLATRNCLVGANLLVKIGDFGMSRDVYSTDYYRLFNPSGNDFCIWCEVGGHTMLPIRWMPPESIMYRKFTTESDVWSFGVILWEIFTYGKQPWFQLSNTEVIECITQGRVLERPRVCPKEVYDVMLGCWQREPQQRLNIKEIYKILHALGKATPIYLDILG
# T1 sequence (Q15139 whole entry): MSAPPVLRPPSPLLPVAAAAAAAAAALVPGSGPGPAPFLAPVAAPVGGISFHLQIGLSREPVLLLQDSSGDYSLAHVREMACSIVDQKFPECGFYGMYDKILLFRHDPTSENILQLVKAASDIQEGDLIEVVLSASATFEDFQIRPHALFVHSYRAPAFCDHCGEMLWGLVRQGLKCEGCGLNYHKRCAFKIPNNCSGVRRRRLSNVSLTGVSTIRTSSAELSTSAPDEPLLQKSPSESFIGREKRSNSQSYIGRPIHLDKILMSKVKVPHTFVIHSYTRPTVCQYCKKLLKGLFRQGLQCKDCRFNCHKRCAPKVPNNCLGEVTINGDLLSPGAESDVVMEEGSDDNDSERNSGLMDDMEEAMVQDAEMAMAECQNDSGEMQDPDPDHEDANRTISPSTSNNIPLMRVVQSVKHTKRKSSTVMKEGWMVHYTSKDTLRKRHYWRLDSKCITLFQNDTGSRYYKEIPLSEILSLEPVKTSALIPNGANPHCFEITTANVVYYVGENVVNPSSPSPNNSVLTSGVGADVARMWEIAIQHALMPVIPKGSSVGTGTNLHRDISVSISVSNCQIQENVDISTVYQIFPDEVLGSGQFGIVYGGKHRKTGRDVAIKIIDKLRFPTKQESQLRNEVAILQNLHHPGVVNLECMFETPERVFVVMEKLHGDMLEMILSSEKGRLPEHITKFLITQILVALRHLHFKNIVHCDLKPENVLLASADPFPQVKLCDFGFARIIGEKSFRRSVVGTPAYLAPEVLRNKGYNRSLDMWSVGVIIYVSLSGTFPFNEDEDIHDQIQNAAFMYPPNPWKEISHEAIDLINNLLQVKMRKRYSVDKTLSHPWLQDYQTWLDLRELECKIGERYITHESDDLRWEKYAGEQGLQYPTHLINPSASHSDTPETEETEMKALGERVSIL
# T17 sequence (Q96L34 whole entry): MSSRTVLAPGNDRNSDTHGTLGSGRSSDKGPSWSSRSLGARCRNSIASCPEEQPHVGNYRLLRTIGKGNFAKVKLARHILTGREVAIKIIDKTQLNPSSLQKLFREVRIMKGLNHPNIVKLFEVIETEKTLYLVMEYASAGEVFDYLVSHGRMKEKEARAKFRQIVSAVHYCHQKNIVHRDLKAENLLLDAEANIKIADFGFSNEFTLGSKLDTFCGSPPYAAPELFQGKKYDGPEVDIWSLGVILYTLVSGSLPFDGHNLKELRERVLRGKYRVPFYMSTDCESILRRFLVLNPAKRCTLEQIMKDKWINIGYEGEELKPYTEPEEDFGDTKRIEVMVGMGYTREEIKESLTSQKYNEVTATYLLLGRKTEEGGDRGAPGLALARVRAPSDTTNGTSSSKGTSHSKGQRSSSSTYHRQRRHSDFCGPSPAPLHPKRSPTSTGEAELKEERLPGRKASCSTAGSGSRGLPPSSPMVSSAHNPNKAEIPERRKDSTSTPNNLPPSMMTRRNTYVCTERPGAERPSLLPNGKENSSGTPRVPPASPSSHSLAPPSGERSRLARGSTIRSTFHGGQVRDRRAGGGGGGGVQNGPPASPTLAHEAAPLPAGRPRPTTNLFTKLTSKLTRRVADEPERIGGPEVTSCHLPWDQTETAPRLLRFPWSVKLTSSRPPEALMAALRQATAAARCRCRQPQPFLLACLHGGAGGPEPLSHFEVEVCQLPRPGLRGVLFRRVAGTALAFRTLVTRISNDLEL
smiles,measurement,setting,value
"N[C@H]1CC[C@H](Nc2cc(-c3cccc(NCc4cccc(F)c4)n3)c(Cl)cn2)CC1 [i-CDK9, N2′-(trans-4-aminocyclohexyl)-5′-chloro-N6-(3-fluorobenzyl)-2,4′-bipyridine-2′,6-diamine]",remaining binding at 1 µM,PRKD1; 1 µM i-CDK9,55%
same,remaining binding at 10 µM,PRKD1; 10 µM i-CDK9,20%
same,remaining binding at 1 µM,IRAK3; 1 µM i-CDK9,100%
same,remaining binding at 10 µM,IRAK3; 10 µM i-CDK9,88%
same,remaining binding at 1 µM,MTOR,100%
same,remaining binding at 1 µM,EPHB4; 1 µM i-CDK9,100%
same,remaining binding at 10 µM,EPHB4; 10 µM i-CDK9,100%
same,remaining binding at 1 µM,STK33; 1 µM i-CDK9,88%
same,remaining binding at 10 µM,STK33; 10 µM i-CDK9,100%
same,remaining binding at 1 µM,LCK; 1 µM i-CDK9,100%
same,remaining binding at 10 µM,LCK; 10 µM i-CDK9,100%
same,remaining binding at 1 µM,p38-beta; 1 µM i-CDK9,66%
same,remaining binding at 10 µM,p38-beta; 10 µM i-CDK9,100%
same,remaining binding at 1 µM,[1],100%
same,remaining binding at 1 µM,CDK5; 1 µM i-CDK9,100%
same,remaining binding at 10 µM,CDK5; 10 µM i-CDK9,81%
same,remaining binding at 10 µM,[2],100%
same,remaining binding at 1 µM,TRKC; 1 µM i-CDK9,63%
same,remaining binding at 10 µM,TRKC; 10 µM i-CDK9,95%
same,remaining binding at 1 µM,FGFR3(G697C); 1 µM i-CDK9,96%
same,remaining binding at 10 µM,FGFR3(G697C); 10 µM i-CDK9,100%
same,remaining binding at 1 µM,PCTK2; 1 µM i-CDK9,14%
same,remaining binding at 10 µM,PCTK2; 10 µM i-CDK9,0.05%
same,% Retention on Solid Support,CIT; 1 µM i-CDK9,60%
same,% Retention on Solid Support,CIT; 10 µM i-CDK9,8.2%
same,% Retention on Solid Support,MET; 1 µM i-CDK9,94%
same,% Retention on Solid Support,MET; 10 µM i-CDK9,96%
same,remaining binding at 1 µM,GSK3B; 1 µM i-CDK9,79%
same,remaining binding at 10 µM,GSK3B; 10 µM i-CDK9,74%
same,% Retention on Solid Support,MARK4; 1 µM i-CDK9,100%
same,% Retention on Solid Support,MARK4; 10 µM i-CDK9,100%
same,remaining binding at 1 µM,FLT4; 1 µM i-CDK9,68%
same,remaining binding at 10 µM,FLT4; 10 µM i-CDK9,72%
same,remaining binding at 1 µM,HUNK; 1 µM i-CDK9,86%
same,remaining binding at 10 µM,HUNK; 10 µM i-CDK9,52%
